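Test compounds were applied to cells in 96-well plates for 48 hours at 5 doses. GI50 is the concentration that inhibits growth by half.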 Active and inactive are the calls of the source. Rule as the data show it: active = GI50 up to about 1.1 µM and inactive = higher.
Tests used:
Experiment in all cases: growth of human tumour cells (NCI), 48 h
COLO 205 = tested on: COLO 205
U-251 = tested on: U-251
EKVX = tested on: EKVX
HOP-92 = tested on: HOP-92
IGROV-1 = tested on: IGROV-1
SR = tested on: SR
LOX IMVI = tested on: LOX IMVI
786-0 = tested on: 786-0
PC-3 = tested on: PC-3
MCF7 = tested on: MCF7
OVCAR-4 = tested on: OVCAR-4
HT-29 = tested on: HT-29
UO-31 = tested on: UO-31
NCI-H522 = tested on: NCI-H522
NCI-H226 = tested on: NCI-H226
OVCAR-3 = tested on: OVCAR-3
NCI-H460 = tested on: NCI-H460
HCC 2998 = tested on: HCC 2998
MOLT-4 = tested on: MOLT-4
A549 = tested on: A549

Row | Structure (SMILES) | GI50 (COLO 205) | GI50 (U-251) | GI50 (EKVX) | GI50 (HOP-92) | GI50 (IGROV-1) | GI50 (SR) | GI50 (LOX IMVI) | GI50 (786-0) | GI50 (PC-3) | GI50 (MCF7) | GI50 (OVCAR-4) | GI50 (HT-29) | GI50 (UO-31) | GI50 (NCI-H522) | GI50 (NCI-H226) | GI50 (OVCAR-3) | GI50 (NCI-H460) | GI50 (HCC 2998) | GI50 (MOLT-4) | GI50 (A549)
1 | CN(C)C(=O)Nc1cc2c3c(c1)CCCN3CCC2 | > 10 µM (inactive) | > 10 µM (inactive) | > 10 µM (inactive) | > 10 µM (inactive) | > 10 µM (inactive) | > 10 µM (inactive) | > 10 µM (inactive) | > 10 µM (inactive) | > 10 µM (inactive) | > 10 µM (inactive) | > 10 µM (inactive) | > 10 µM (inactive) | > 10 µM (inactive) | > 10 µM (inactive) | > 10 µM (inactive) | > 10 µM (inactive) | > 10 µM (inactive) | > 10 µM (inactive) | > 10 µM (inactive) | > 10 µM (inactive)
2 | CS(=O)(=O)N1CC(CCl)c2ccc([N+](=O)[O-])cc21 (stereo not given) | > 100 µM (inactive) | 58.6 µM (inactive) | > 100 µM (inactive) | > 100 µM (inactive) | > 100 µM (inactive) | > 100 µM (inactive) | > 100 µM (inactive) | > 100 µM (inactive) | > 100 µM (inactive) | > 100 µM (inactive) | > 100 µM (inactive) | > 100 µM (inactive) | > 100 µM (inactive) | > 100 µM (inactive) | > 100 µM (inactive) | > 100 µM (inactive) | 38.2 µM (inactive) | > 100 µM (inactive) | > 100 µM (inactive) | > 100 µM (inactive)
3 | O=C1C(CN2CCCC2)CCC1CN1CCCC1 (stereo not given) | 5.71 µM (inactive) | > 100 µM (inactive) | > 49.7 µM (inactive) | 14.4 µM (inactive) | 27.9 µM (inactive) | 12.9 µM (inactive) | 20.8 µM (inactive) | 15.8 µM (inactive) | 23.7 µM (inactive) | 19.4 µM (inactive) | 20.7 µM (inactive) | 20 µM (inactive) | 17.8 µM (inactive) | 1.9 µM (inactive) | > 48.2 µM (inactive) | 17.1 µM (inactive) | > 100 µM (inactive) | > 100 µM (inactive) | 5.31 µM (inactive) | > 100 µM (inactive)
4 | CCN(CC)CCCNc1ccc2nnn3c4ccc(O)cc4c(=O)c1c23 | 2.81 µM (inactive) | 2.33 µM (inactive) | 16.1 µM (inactive) | 14.6 µM (inactive) | 4.86 µM (inactive) | 1.69 µM (inactive) | 2.9 µM (inactive) | 5.71 µM (inactive) | 6.5 µM (inactive) | 14 µM (inactive) | 6.35 µM (inactive) | 2.65 µM (inactive) | 0.968 µM (active) | 3.05 µM (inactive) | 6.87 µM (inactive) | 11.4 µM (inactive) | 0.653 µM (active) | 9.06 µM (inactive) | 0.385 µM (active) | 1.58 µM (inactive)
5 | Cc1ccc2nc(/C=N/c3ccccc3Cl)cc(C)c2c1 | 50.8 µM (inactive) | 20.7 µM (inactive) | 20.4 µM (inactive) | 25.4 µM (inactive) | 18.9 µM (inactive) | 2.81 µM (inactive) | 8.61 µM (inactive) | 16.7 µM (inactive) | 25.4 µM (inactive) | 17.5 µM (inactive) | 34 µM (inactive) | 18.4 µM (inactive) | 16.5 µM (inactive) | 20 µM (inactive) | 20.6 µM (inactive) | 17.5 µM (inactive) | 17.2 µM (inactive) | 47.3 µM (inactive) | 5.79 µM (inactive) | > 100 µM (inactive)
